Measured values reported in patent US12201609B2, “Saroglitazar for the treatment of hepatocellular carcinoma” (CADILA HEALTHCARE LIMITED, priority 2018, dated 2025).

Test system: Hepatocellular Carcinoma Induced by Intraperitoneal Injection of Diethylnitrosamine in C57/BL6 Mice
Experiment: Saroglitazar efficacy in hepatocellular carcinoma induced by diethylnitrosamine (DEN) injection and CDAHFD feeding in mice
Assay type: in vivo, C57BL/6 male mice
Conditions: CDAHFD-DEN mice; for Serum ALT levels, % Change Vs Disease Control / Serum AST levels, % Change Vs Disease Control / Serum TG levels, % Change Vs Disease Control / % animals showing liver tumor / No. of animal with tumor / No. of liver tumors/animal / Serum ALT levels / Serum AST levels / Serum TG levels: p.o.; for % animals showing liver tumor / No. of animal with tumor / No. of liver tumors/animal: 27 weeks treatment; for Serum ALT levels / Serum AST levels / Serum TG levels: at termination
Source text: Evaluation of Saroglitazar's efficacy in Hepatocellular Carcinoma Induced by Intraperitoneal Injection of Diethylnitrosamine in C57/BL6 Mice.
In this study, hepatocellular carcinoma (HCC) was induced in C57BL/6 male mice first by injecting them with diethylnitrosamine (DEN) and by then feeding them a choline-deficient, L-amino acid-defined, high-fat diet (CDAHFD); Developed an experimental mouse model of hepatocellular carcinoma (Ohno T, Shimizu M, Shirakami Y, Baba A, Kochi T, Kubota M, et al. (2015) Metformin Suppresses Diethylnitrosamine-Induced Liver Tumorigenesis in Obese and Diabetic C57BL/KsJ−+Leprdb/+Leprdb Mice. PLoS ONE 10(4): e0124081; Journal of Cancer, 2018; 9(5): 914-922;)
The objective of this study was to evaluate the efficacy of Saroglitazar for prevention and or regression of hepatocellular carcinoma in mice after intraperitoneal injection of diethylnitrosamine and feeding of Choline deficient, L-amino acid-defined, High-fat Diet.
HCC was induced in C57BL/6 male mice by feeding them a choline-deficient, L-amino acid-defined, high-fat diet (CDAHFD) and administration of diethylnitrosamine (DEN). DEN was administered one-time by intraperitoneal route at the age of 3-weeks. Treatment with Saroglitazar (1 and 3 mg/kg) was initiated after 8 weeks of CDAHFD initiation and continued for 27 weeks.
After 8 weeks of CDAHFD diet (or DEN administration) blood collection was performed for serum ALT, AST and on the basis serum ALT level animals were divided in to following groups: • 1. Control for CDAHFD+Vehicle (n=10)—Normal Control • 2. CDAHFD—Saline+Vehicle (n=10)—CDAHFD Control • 3. CDAHFD—DEN+Vehicle (n=15)—Disease Control • 4. CDAHFD—DEN+Saroglitazar 1 mg/kg, p.o. (n=15)—D-Saro (1 mg/kg, p.o.) • 5. CDAHFD—DEN+Saroglitazar 3 mg/kg, p.o. (n=15)—D-Saro (3 mg/kg, p.o.)
Test compound formulation was prepared in Tween 80 and 0.5% sodium CMC in ratio of 0.5:99.5 in such that volume of administration will be 10 ml/kg.
Treatment along with diet was continued for 27 weeks.
In this study almost 50% animals from each group were terminated at 31 weeks after DEN injection and remaining 50% animals were sacrificed at 35 weeks after DEN administration (i.e. completion of 27 weeks of treatment). At termination, blood collection was performed for serum parameters like ALT, AST and TG. Animals were sacrificed; spleen and liver will be collected and weighed. Liver will be observed for presence of tumors, number of tumors and size of tumors. Liver was collected for liver biochemistry, histology

## CCO[C@@H](Cc1ccc(OCCn2c(C)ccc2-c2ccc(SC)cc2)cc1)C(=O)O [Saroglitazar]
3 mg/kg dose
  prevention of hepatic carcinogenesis: 100%
  tumor in liver (in words): did not show any tumor in liver
3 mg/kg, vs disease control
  reduction in serum ALT: 40%
  reduction in serum AST: 44%
1 and 3 mg/kg
  effect on liver tumor incidence (in words): dose dependent effect on liver tumor incidence
  serum triglycerides levels (in words): dose dependent reduction
Saroglitazar 1 mg/kg
  Serum ALT levels, % Change Vs Disease Control: −33.6%
  Serum AST levels, % Change Vs Disease Control: −36.2%
  Serum TG levels, % Change Vs Disease Control: −38.4%
  % animals showing liver tumor: 20.0%
  No. of animal with tumor: 3 out of 15
  No. of liver tumors/animal: 0.3
  Serum ALT levels: 232.3 U/L
  Serum AST levels: 231.1 U/L
  Serum TG levels: 42.7 mg/dL
Saroglitazar 3 mg/kg
  Serum ALT levels, % Change Vs Disease Control: −39.9%
  Serum AST levels, % Change Vs Disease Control: −43.9%
  Serum TG levels, % Change Vs Disease Control: −54.6%
  % animals showing liver tumor: 0.0%
  No. of animal with tumor: 0 out of 15
  No. of liver tumors/animal: 0.0
  Serum ALT levels: 210.5 U/L
  Serum AST levels: 203.0 U/L
  Serum TG levels: 31.5 mg/dL
Saroglitazar treatment
  liver injury markers, serum ALT and AST (in words): significant reduction
